# Assay results reported in ChEMBL document CHEMBL4507317, “Data for DCP probe BAY-899” (2021).
# pKi: −log10 of the molar value.
# What was measured:
# [1] = biological target: 5-hydroxytryptamine receptor 2A (Homo sapiens, UniProt P28223); assay: GPCRScan assay: inhibition of 5-HT2A; design: radioligand conc. used [nm] 1.2 – 2.4, parental cells HEKT
# [2] = biological target: 5-hydroxytryptamine receptor 2B (Homo sapiens, UniProt P41595); assay: GPCRScan assay: inhibition of 5-HT2B; design: radioligand conc. used [nm] 1.0 – 2.0, parental cells stable HEK
# [3] = biological target: 5-hydroxytryptamine receptor 2C (Homo sapiens, UniProt P28335); assay: GPCRScan assay: inhibition of 5-HT2C; design: radioligand conc. used [nm] 1.0 – 2.5, parental cells HEK T
# [4] = biological target: Lutropin-choriogonadotropic hormone receptor (Homo sapiens, UniProt P22888); assay: Cell-based assay (LH Antagonism)
# [5] = biological target: Atypical kinase COQ8B, mitochondrial (Homo sapiens) (UniProt Q96D53); settings: Compound concentration 1000.0 nM
# Sequence of Atypical kinase COQ8B, mitochondrial (Homo sapiens) (Q96D53 whole entry): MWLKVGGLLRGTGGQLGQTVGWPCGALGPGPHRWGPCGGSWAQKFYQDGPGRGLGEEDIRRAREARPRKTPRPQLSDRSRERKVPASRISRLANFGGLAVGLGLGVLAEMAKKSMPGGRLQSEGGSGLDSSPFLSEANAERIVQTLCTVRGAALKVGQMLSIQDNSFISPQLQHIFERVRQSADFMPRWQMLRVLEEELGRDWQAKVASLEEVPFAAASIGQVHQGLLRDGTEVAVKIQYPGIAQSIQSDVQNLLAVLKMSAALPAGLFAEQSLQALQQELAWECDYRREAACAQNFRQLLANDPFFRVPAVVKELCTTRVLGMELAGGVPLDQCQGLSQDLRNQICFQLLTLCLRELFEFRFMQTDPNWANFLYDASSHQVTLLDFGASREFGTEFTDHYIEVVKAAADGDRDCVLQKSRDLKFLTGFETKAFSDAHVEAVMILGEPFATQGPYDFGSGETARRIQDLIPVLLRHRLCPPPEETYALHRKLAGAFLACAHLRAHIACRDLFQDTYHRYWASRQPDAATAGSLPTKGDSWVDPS
# [6] = biological target: Cyclin-dependent kinase-like 1 (Homo sapiens) (UniProt Q00532); settings: Compound concentration 1000.0 nM
# [7] = biological target: Mitogen-activated protein kinase kinase kinase 11 (Homo sapiens) (UniProt Q16584); settings: Compound concentration 1000.0 nM
# Sequence of Mitogen-activated protein kinase kinase kinase 11 (Homo sapiens) (Q16584 whole entry, looked up): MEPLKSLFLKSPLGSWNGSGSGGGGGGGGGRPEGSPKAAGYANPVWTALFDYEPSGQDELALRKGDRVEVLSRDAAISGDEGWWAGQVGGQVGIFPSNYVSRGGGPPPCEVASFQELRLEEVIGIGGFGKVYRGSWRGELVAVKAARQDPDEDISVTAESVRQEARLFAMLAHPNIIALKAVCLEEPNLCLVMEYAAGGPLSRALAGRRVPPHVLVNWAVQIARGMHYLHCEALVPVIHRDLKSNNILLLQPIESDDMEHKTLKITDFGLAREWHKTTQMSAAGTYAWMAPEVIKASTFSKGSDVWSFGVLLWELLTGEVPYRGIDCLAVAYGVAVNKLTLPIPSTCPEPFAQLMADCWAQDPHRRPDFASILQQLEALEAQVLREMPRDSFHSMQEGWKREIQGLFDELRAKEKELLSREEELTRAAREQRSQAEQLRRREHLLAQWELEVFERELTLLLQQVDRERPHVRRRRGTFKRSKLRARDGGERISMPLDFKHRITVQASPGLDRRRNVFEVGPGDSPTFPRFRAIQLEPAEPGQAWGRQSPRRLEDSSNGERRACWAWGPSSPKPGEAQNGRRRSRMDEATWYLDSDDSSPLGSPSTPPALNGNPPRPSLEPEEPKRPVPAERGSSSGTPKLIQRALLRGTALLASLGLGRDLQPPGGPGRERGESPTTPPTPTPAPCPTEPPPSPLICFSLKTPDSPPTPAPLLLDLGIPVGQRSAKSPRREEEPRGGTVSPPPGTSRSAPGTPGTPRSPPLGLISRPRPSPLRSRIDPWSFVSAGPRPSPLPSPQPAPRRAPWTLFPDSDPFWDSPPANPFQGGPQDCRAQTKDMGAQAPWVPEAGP
# [8] = biological target: 3-phosphoinositide-dependent protein kinase 1 (Homo sapiens) (UniProt O15530); settings: Compound concentration 1000.0 nM
# [9] = biological target: 5-hydroxytryptamine receptor 5A (Homo sapiens) (UniProt P47898); settings: Compound concentration 10.0 uM
# [10] = biological target: Delta-type opioid receptor (Homo sapiens) (UniProt P41143); settings: Compound concentration 10.0 uM
# [11] = biological target: Muscarinic acetylcholine receptor M3 (Homo sapiens) (UniProt P20309); settings: Compound concentration 10.0 uM
# [12] = biological target: Beta-3 adrenergic receptor (Homo sapiens) (UniProt P13945); settings: Compound concentration 10.0 uM
# [13] = biological target: Adenosine receptor A2b (Homo sapiens) (UniProt P29275); assay: A2B Eurofins Bayer panel; settings: Compound concentration 10.0 uM
# Sequence of Adenosine receptor A2b (Homo sapiens) (P29275 whole entry): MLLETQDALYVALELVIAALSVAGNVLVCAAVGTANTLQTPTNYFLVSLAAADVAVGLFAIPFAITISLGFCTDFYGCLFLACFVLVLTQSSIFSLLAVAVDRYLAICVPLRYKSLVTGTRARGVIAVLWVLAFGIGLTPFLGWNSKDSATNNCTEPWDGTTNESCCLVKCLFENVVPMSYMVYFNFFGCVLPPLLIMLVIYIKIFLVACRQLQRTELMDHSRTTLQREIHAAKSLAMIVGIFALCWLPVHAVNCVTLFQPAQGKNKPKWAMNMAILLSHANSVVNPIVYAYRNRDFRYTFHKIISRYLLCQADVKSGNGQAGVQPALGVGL
# [14] = biological target: Beta-1 adrenergic receptor (Homo sapiens) (UniProt P08588); assay: beta 1 Eurofins Bayer panel; settings: Compound concentration 10.0 uM
# [15] = biological target: Beta-2 adrenergic receptor (Homo sapiens) (UniProt P07550); assay: beta 2 Eurofins Bayer panel; settings: Compound concentration 10.0 uM
# [16] = biological target: Cannabinoid receptor 1 (Homo sapiens) (UniProt P21554); assay: CB1 Eurofins Bayer panel; settings: Compound concentration 10.0 uM
# Sequence of Cannabinoid receptor 1 (Homo sapiens) (P21554 whole entry): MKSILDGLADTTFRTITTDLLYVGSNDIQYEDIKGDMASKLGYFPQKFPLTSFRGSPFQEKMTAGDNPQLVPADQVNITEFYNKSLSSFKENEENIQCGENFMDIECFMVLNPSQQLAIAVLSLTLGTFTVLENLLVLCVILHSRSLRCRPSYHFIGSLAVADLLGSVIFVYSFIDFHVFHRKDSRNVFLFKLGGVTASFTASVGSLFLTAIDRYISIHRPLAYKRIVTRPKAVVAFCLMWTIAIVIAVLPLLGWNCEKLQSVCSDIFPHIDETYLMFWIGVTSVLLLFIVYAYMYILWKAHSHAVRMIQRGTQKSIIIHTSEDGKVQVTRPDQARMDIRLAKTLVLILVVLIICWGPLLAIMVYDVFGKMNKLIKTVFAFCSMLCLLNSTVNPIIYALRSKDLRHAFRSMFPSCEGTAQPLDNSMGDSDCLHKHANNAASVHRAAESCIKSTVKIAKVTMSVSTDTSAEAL
# [17] = biological target: D(1A) dopamine receptor (Homo sapiens) (UniProt P21728); assay: D1 Eurofins Bayer panel; settings: Compound concentration 10.0 uM
# Sequence of D(1A) dopamine receptor (Homo sapiens) (P21728 whole entry): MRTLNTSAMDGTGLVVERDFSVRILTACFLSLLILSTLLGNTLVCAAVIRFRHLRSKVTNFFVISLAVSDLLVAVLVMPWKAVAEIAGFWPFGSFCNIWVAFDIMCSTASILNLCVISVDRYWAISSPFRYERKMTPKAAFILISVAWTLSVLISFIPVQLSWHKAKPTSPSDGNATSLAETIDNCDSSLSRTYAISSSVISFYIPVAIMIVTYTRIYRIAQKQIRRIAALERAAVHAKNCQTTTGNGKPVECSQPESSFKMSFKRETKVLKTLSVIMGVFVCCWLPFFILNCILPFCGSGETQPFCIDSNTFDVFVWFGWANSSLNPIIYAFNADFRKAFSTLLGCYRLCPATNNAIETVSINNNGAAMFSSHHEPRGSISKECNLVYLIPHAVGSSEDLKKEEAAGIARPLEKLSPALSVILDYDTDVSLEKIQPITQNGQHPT
# [18] = biological target: D(2) dopamine receptor (Homo sapiens) (UniProt P14416); assay: D2L Eurofins Bayer panel; settings: Compound concentration 10.0 uM
# [19] = biological target: Histamine H1 receptor (Homo sapiens) (UniProt P35367); assay: H1 Eurofins Bayer panel; settings: Compound concentration 10.0 uM
# [20] = biological target: Melanocortin receptor 4 (Homo sapiens) (UniProt P32245); assay: MC4 Eurofins Bayer panel; settings: Compound concentration 10.0 uM
# Sequence of Melanocortin receptor 4 (Homo sapiens) (P32245 whole entry): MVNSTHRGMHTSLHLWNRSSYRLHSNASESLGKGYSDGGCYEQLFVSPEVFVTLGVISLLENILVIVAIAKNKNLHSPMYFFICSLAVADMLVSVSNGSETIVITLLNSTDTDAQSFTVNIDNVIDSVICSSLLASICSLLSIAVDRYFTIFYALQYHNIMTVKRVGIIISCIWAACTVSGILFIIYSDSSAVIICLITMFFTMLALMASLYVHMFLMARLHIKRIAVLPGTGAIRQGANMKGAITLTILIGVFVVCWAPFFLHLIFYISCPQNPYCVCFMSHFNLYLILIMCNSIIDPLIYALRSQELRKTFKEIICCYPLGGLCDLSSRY
# [21] = biological target: Motilin receptor (Homo sapiens) (UniProt O43193); assay: Motilin Eurofins Bayer panel; settings: Compound concentration 10.0 uM
# [22] = biological target: T1, Muscarinic acetylcholine receptor M1 (Homo sapiens) (UniProt P11229); assay: M1 Eurofins Bayer panel; settings: Compound concentration 10.0 uM
# T1 sequence (whole entry): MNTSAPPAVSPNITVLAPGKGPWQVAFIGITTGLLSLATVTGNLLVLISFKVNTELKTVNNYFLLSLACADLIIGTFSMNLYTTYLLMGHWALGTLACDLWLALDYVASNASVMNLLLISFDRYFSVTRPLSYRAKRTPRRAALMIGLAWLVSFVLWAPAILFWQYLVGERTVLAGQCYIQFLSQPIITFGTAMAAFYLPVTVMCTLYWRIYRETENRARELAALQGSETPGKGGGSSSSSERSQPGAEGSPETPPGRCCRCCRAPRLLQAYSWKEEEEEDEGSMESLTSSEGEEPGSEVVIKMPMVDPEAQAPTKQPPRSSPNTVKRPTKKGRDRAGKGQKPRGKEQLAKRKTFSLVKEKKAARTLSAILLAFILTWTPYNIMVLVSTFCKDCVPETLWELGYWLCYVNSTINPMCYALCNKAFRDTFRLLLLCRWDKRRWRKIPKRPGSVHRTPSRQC
# [23] = biological target: T2, Muscarinic acetylcholine receptor M4 (Homo sapiens) (UniProt P08173); assay: M4 Eurofins Bayer panel; settings: Compound concentration 10.0 uM
# T2 sequence (whole entry): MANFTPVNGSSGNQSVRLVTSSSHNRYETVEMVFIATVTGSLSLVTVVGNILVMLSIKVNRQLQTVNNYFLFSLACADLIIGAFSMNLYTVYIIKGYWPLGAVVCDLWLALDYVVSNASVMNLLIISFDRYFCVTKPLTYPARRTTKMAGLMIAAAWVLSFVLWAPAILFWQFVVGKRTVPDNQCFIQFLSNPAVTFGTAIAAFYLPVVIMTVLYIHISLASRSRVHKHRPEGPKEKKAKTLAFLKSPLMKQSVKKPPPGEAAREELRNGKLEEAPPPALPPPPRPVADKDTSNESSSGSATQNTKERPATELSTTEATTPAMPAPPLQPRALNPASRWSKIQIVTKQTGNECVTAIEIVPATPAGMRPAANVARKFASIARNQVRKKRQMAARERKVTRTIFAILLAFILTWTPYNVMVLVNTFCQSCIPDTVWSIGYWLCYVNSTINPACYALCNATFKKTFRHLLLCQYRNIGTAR
# [24] = biological target: Substance-P receptor (Homo sapiens) (UniProt P25103); assay: NK1 Eurofins Bayer panel; settings: Compound concentration 10.0 uM
# Sequence of Substance-P receptor (Homo sapiens) (P25103 whole entry): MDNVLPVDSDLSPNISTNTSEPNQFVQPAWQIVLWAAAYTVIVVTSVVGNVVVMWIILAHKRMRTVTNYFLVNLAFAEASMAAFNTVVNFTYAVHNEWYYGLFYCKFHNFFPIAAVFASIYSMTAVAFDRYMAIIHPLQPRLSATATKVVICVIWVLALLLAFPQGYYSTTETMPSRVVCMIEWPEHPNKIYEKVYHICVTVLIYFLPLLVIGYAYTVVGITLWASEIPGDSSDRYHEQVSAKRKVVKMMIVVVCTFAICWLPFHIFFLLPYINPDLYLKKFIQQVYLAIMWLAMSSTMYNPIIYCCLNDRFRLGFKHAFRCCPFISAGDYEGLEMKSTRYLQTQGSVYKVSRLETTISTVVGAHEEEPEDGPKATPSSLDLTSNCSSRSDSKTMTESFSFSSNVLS
# [25] = biological target: Kappa-type opioid receptor (Homo sapiens, UniProt P41145); assay: kappa (KOP) Eurofins Bayer panel; settings: Compound concentration 10.0 uM
# Sequence of Kappa-type opioid receptor (P41145 whole entry): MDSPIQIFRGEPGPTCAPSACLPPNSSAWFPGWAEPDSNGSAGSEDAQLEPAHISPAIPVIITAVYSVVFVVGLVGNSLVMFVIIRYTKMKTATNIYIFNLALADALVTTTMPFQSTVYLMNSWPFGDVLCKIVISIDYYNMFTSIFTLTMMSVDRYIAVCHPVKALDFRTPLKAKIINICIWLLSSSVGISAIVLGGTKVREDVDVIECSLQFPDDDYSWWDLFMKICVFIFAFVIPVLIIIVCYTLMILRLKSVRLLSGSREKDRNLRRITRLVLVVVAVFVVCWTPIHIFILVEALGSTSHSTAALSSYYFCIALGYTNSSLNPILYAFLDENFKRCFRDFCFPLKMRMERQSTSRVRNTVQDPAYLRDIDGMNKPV
# [26] = biological target: Mu-type opioid receptor (Homo sapiens) (UniProt P35372); assay: mu (MOP) Eurofins Bayer panel; settings: Compound concentration 10.0 uM
# Sequence of Mu-type opioid receptor (Homo sapiens) (P35372 whole entry): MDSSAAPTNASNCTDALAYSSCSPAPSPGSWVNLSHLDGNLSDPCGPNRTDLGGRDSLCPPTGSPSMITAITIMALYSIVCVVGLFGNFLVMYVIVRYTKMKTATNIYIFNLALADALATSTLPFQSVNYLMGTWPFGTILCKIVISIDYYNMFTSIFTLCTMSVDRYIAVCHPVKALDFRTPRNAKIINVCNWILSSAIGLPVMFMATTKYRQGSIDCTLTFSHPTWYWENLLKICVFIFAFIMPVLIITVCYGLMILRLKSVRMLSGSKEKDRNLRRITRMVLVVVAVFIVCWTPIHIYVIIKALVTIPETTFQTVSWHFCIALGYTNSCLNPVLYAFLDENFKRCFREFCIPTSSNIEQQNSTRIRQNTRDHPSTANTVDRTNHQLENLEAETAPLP
# [27] = biological target: P2Y purinoceptor 2 (Homo sapiens) (UniProt P41231); assay: P2Y2 Eurofins Bayer panel; settings: Compound concentration 10.0 uM
# Sequence of P2Y purinoceptor 2 (Homo sapiens) (P41231 whole entry): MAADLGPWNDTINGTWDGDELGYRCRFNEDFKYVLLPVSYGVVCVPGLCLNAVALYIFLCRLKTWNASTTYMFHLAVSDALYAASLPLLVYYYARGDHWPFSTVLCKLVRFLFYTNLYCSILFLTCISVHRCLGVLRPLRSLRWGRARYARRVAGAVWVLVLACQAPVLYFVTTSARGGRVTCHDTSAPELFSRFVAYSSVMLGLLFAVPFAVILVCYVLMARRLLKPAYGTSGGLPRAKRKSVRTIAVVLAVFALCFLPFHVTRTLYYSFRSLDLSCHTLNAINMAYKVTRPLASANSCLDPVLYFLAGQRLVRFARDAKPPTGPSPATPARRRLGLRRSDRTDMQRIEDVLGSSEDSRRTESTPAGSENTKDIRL
# [28] = biological target: 5-hydroxytryptamine receptor 6 (Homo sapiens) (UniProt P50406); assay: 5-HT6 Eurofins Bayer panel; settings: Compound concentration 10.0 uM
# [29] = biological target: Somatostatin receptor type 4 (Homo sapiens) (UniProt P31391); assay: sst4 Eurofins Bayer panel; settings: Compound concentration 10.0 uM
# Sequence of Somatostatin receptor type 4 (Homo sapiens) (P31391 whole entry): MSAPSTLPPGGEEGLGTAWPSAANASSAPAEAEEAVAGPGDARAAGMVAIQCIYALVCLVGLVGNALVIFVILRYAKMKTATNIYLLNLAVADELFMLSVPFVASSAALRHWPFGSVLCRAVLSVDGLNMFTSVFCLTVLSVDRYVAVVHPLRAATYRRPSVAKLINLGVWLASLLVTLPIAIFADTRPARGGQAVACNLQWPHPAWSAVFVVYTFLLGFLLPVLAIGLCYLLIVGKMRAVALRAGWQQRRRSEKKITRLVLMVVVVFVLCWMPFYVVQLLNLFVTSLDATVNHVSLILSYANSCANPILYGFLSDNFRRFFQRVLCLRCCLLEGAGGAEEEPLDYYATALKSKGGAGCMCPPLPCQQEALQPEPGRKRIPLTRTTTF
# [30] = system: Receptor-type tyrosine-protein kinase FLT3 (Homo sapiens), P36888 [K663Q]; settings: Compound concentration 1000.0 nM
# [31] = biological target: 5-hydroxytryptamine receptor 7 (Homo sapiens) (UniProt P34969); settings: Compound concentration 10.0 uM
compound,measurement,setting,value
O=C(Nc1ccc(Oc2ccc(F)cc2)cc1)N1CCc2ncccc2[C@H]1c1ccc(F)cc1 [BAY-897],pKi,[1],5.43
same,pKi,[2],5.28
same,pKi,[3],5.97
same,IC50,[4],> 16 µM (not active)
same,residual activity,[5],92%
same,residual activity,[6],97%
same,residual activity,[7],78%
same,residual activity,[8],88%
same,inhibition,[9],7.18%
same,inhibition,[10],32.7%
same,inhibition,[11],-3.47%
same,inhibition,[12],29.4%
O=C(Nc1cnc(Oc2ccc(F)cc2)nc1)N1CCc2ncccc2[C@@H]1c1ccc(F)cc1 [BAY-899],Activation (% of control),[13],-1%
same,Inhibition (% of control),[13],16%
same,Activation (% of control),[14],-1%
same,Inhibition (% of control),[14],13%
same,Activation (% of control),[15],-3%
same,Inhibition (% of control),[15],26%
same,Activation (% of control),[16],52%
same,Inhibition (% of control),[16],4%
same,Activation (% of control),[17],-1%
same,Inhibition (% of control),[17],15%
same,Activation (% of control),[18],-1%
same,Inhibition (% of control),[18],67%
same,Activation (% of control),[19],-4%
same,Inhibition (% of control),[19],4%
same,Activation (% of control),[20],-2%
same,Inhibition (% of control),[20],11%
same,Activation (% of control),[21],-1%
same,Inhibition (% of control),[21],28%
same,Activation (% of control),[22],1%
same,Inhibition (% of control),[22],32%
same,Activation (% of control),[23],-6%
same,Inhibition (% of control),[23],2%
same,Activation (% of control),[24],-3%
same,Inhibition (% of control),[24],24%
same,Activation (% of control),[25],56%
same,Inhibition (% of control),[25],-10%
same,Activation (% of control),[26],56%
same,Inhibition (% of control),[26],8%
same,Activation (% of control),[27],-1%
same,Inhibition (% of control),[27],8%
same,Activation (% of control),[28],-1%
same,Inhibition (% of control),[28],12%
same,Activation (% of control),[29],23%
same,Inhibition (% of control),[29],6%
same,residual activity,[5],100%
same,residual activity,[6],100%
same,residual activity,[30],100%
same,residual activity,[7],83%
same,residual activity,[8],97%
same,inhibition,[31],2.63%
